From ChEMBL document CHEMBL1641422, “Bitriazolyl acyclonucleosides synthesized via Huisgen reaction using internal alkynes show antiviral activity against tobacco mosaic virus” (2011)

System: Tobacco mosaic virus
Assay: Antiviral activity against Tobacco mosaic virus after 72 hrs by half-leaf juice rubbing method
Assay type: functional
Parameters: concentration or dose not given beside the values

Going from `NC(=O)c1nc(-c2nn[nH]c2-c2ccccc2)n(COCCO)n1` to `Cc1ccc(-c2[nH]nnc2-c2nc(C(N)=O)nn2COCCO)cc1`, the Activity falls from 36% to 28%.

Going from `COc1ccc(-c2[nH]nnc2-c2nc(C(N)=O)nn2COCCO)cc1` to `NC(=O)c1nc(-c2nn[nH]c2-c2ccc(F)cc2)n(COCCO)n1`, the Activity falls from 39% to 29%.

Going from `CCCCc1ccc(-c2[nH]nnc2-c2nc(C(N)=O)nn2COCCO)cc1` to `CCCCCc1ccc(-c2[nH]nnc2-c2nc(C(N)=O)nn2COCCO)cc1`, the Activity rises from 22% to 44%.

Compared with `NC(=O)c1nc(-c2nn[nH]c2-c2ccccc2C(F)(F)F)n(COCCO)n1`, `NC(=O)c1nc(-c2nn[nH]c2-c2cccc(C(F)(F)F)c2)n(COCCO)n1` is lower in Activity: 17% for the first, 16% for the second.

Going from `NC(=O)c1nc(-c2nn[nH]c2-c2ccc(C(F)(F)F)cc2)n(COCCO)n1` to `NC(=O)c1nc(-c2nn[nH]c2-c2cccs2)n(COCCO)n1`, the Activity falls from 30% to 14%.

First: CCCCCc1[nH]nnc1-c1nc(C(N)=O)nn1COCCO
Second: NC(=O)c1nc(-c2nn[nH]c2C2=CCCCC2)n(COCCO)n1
The Activity of the first is higher: 34% for the first, 23% for the second.

`NC(=O)c1ncn([C@@H]2O[C@H](CO)[C@@H](O)[C@H]2O)n1` [RIBAVIRIN] showed an Activity of 39%.
